Where two headings read alike, the source gives them in different places.
What was measured:
Type in all cases: cell-based
[1] = system: C. albicans wildtype and DNA repair mutants; test: Fungicidal killing, CFU assay; settings: C. albicans rad50/rad50 and rad52/rad52, 3 hours of drug exposure
Experimental: Overnight yeast cultures were diluted into the indicated media and grown to an OD600 of 0.2, at which point the AFs were added. Colony forming units (CFU) were measured by plating six serial dilutions onto YPD agar plates.
(§1) Overnight yeast cultures were diluted into the indicated media and grown to an OD600 of 0.2, at which point the AFs were added. Colony forming units (CFU) were measured by plating six serial dilutions onto YPD agar plates. Cells treated with MCZ were washed before serial dilution to stop growth inhibition associated with high concentrations of MCZ. CFU were counted after three days of incubation on agar plates. When indicated, thiourea (Fluka) was added 30 min prior to the addition of AFs. HPF (10 μM) (Invitrogen) and Mito Tracker (1 μM) (Invitrogen) dyes were added to PBS-washed cells at the indicated time points and incubated for 30 min prior to flow cytometry measurements, which were taken on the FACSCalibur (Becton-Dickinson). All experiments described in this section were conducted in 0.5 ml of SDC in 24-well plates incubated at 900 rpm and 37° C. for C. albicans and 30° C. and 300 rpm for S. cerevisiae. TUNEL assays were conducted as previously described (Ribeiro et al., 2006) and are described in detail in the TUNEL section of the Experimental Procedures.

[2] = system: S. cerevisiae; test: Mitochondrial activity by MitoTracker Red fluorescence; settings: drug added to glucose-incubated (SC, 2% glucose) S. cerevisiae
Experimental: It was next sought to assess the mitochondrial activity of AF-treated fungal cells. Yhe MitoTracker Red dye, which enters the mitochondrial matrix by utilizing the proton motive force and thus labels metabolically active mitochondria in viable cells was used (Arita et al., 2006; Tomas et al., 2011). Exponential phase S. cerevisiae were incubated in glucose-free synthetic complete (SC) media for 30 min and then switched to SC containing 2% glucose or non-fermentable acetate for 1.5 hours.
as §1

[3] = system: S. cerevisiae wildtype and deletion strains
[4] = system: S. cerevisiae single-deletion yeast strains; test: High-throughput 96-well screen of AF sensitivity of single-gene knockouts (CFU at start and after 8 hours)
Experimental: To identify genes critical to AF action, the AF sensitivity of single-gene knockouts identified through the common transcriptional analysis were identified. In the first pass-through, 56 testable genes were identified. This set was later expanded to include targets identified through phenotypic analysis and metabolomic profiling, for a total of 84 target genes (Table 2). The initial 56 targets were tested using a rapid high-throughput 96-well assay with AMB and MCZ to identify single-gene knockouts with elevated resistance to AFs (Table 2). Knockouts that were more resistant to at least one of the AFs were tested individually using the 24-well colony forming (CF) assay. Target genes selected after the initial 56 strains were assayed individually using the 24-well CF assay.
The first 56 S. cerevisiae strains were acquired from the deletion library and stored in 96-well plates in replicates of three. To start the assay, the plates were defrosted and 10 μl of stored cells were inoculated into 100 μl of fresh synthetic dextrose complete (SDC) media for 16 hours. These overnight cultures were diluted into a fresh 96-well plate with 100 μl of SDC to achieve an OD600 of approximately 0.2. Colony forming units (CFU) in each well were measured at the start of the assay and after 8 hours of incubation. The AF susceptibility of each strain was compared to that of wildtype. Strains with significant susceptibility differences from wildtype were assayed in 0.5 ml of SDC media using the 24-well plate CF assay described above.

[5] = S. cerevisiae PAB103, SDH2 deletion
[6] = S. cerevisiae PAB107, NDE1 deletion
[7] = S. cerevisiae PAB112, MNE1 deletion
[8] = S. cerevisiae PAB113, FUM1 deletion
[9] = S. cerevisiae PAB114, TPK2 deletion
[10] = S. cerevisiae PAB119, CIT2 deletion
[11] = S. cerevisiae PAB121, SDH1 deletion
[12] = S. cerevisiae PAB122, TPK3 deletion
[13] = S. cerevisiae PAB124, TPK1 deletion
[14] = S. cerevisiae PAB132, CIT3 deletion
[15] = S. cerevisiae PAB135, NDI1 deletion
[16] = S. cerevisiae PAB145, CIT1 deletion

**Q.** Which results are given for `Clc1ccc(COC(Cn2ccnc2)c2ccc(Cl)cc2Cl)c(Cl)c1` (stereo not drawn) [MCZ, miconazole]?
**A.** susceptibility of DSBR mutants compared to wildtype [1]: particularly susceptible; increase of MitoTracker fluorescence [2]: 70 fold; additive resistance on deleting the remaining citrate synthases in the cit3 background ([3]; S. cerevisiae CIT1/CIT2 deletions in cit3 background): not observed; CFU (24-well colony forming assay), AF susceptibility vs wildtype [3, 5]: Resistant (″Resistant″ or ″Sensitive″ indicate at least a 5-fold CFU difference from wildtype at the final time point); CFU (24-well colony forming assay), AF susceptibility vs wildtype [3, 6]: Resistant (″Resistant″ or ″Sensitive″ indicate at least a 5-fold CFU difference from wildtype at the final time point); CFU (24-well colony forming assay), AF susceptibility vs wildtype [3, 7]: Resistant (″Resistant″ or ″Sensitive″ indicate at least a 5-fold CFU difference from wildtype at the final time point); CFU (24-well colony forming assay), AF susceptibility vs wildtype [3, 8]: Resistant (″Resistant″ or ″Sensitive″ indicate at least a 5-fold CFU difference from wildtype at the final time point); CFU (24-well colony forming assay), AF susceptibility vs wildtype [3, 9]: Resistant (″Resistant″ or ″Sensitive″ indicate at least a 5-fold CFU difference from wildtype at the final time point); CFU (24-well colony forming assay), AF susceptibility vs wildtype [3, 10]: Resistant (″Resistant″ or ″Sensitive″ indicate at least a 5-fold CFU difference from wildtype at the final time point); CFU (24-well colony forming assay), AF susceptibility vs wildtype [3, 11]: Resistant (″Resistant″ or ″Sensitive″ indicate at least a 5-fold CFU difference from wildtype at the final time point); CFU (24-well colony forming assay), AF susceptibility vs wildtype [3, 12]: Resistant (″Resistant″ or ″Sensitive″ indicate at least a 5-fold CFU difference from wildtype at the final time point); CFU (24-well colony forming assay), AF susceptibility vs wildtype [3, 13]: Resistant (″Resistant″ or ″Sensitive″ indicate at least a 5-fold CFU difference from wildtype at the final time point); CFU (24-well colony forming assay), AF susceptibility vs wildtype [3, 14]: Resistant (″Resistant″ or ″Sensitive″ indicate at least a 5-fold CFU difference from wildtype at the final time point); CFU (24-well colony forming assay), AF susceptibility vs wildtype [3, 15]: Resistant (″Resistant″ or ″Sensitive″ indicate at least a 5-fold CFU difference from wildtype at the final time point); CFU (24-well colony forming assay), AF susceptibility vs wildtype [3, 16]: Resistant (″Resistant″ or ″Sensitive″ indicate at least a 5-fold CFU difference from wildtype at the final time point); CFU (24-well colony forming assay), AF susceptibility vs wildtype ([3]; S. cerevisiae PAB168, RAS1 deletion): Resistant (″Resistant″ or ″Sensitive″ indicate at least a 5-fold CFU difference from wildtype at the final time point); CFU (24-well colony forming assay), AF susceptibility vs wildtype ([3]; S. cerevisiae PAB171, RAS2 deletion): Resistant (″Resistant″ or ″Sensitive″ indicate at least a 5-fold CFU difference from wildtype at the final time point); reduction of killing at 3 hours by thiourea ([3]; S. cerevisiae, 50 mM thiourea for 30 minutes prior to the addition of AF drugs): ~10 fold; 96 Well Screen, AF susceptibility vs wildtype ([4]; S. cerevisiae PAB101, WT): Normal; 96 Well Screen, AF susceptibility vs wildtype ([4]; S. cerevisiae PAB102, HSP104 deletion): Normal; 96 Well Screen, AF susceptibility vs wildtype [4, 5]: Resistant (″Resistant″ or ″Sensitive″ indicate at least a 5-fold CFU difference from wildtype at the final time point); 96 Well Screen, AF susceptibility vs wildtype ([4]; S. cerevisiae PAB104, FRE8 deletion): Normal; 96 Well Screen, AF susceptibility vs wildtype ([4]; S. cerevisiae PAB105, CHA4 deletion): Normal; 96 Well Screen, AF susceptibility vs wildtype ([4]; S. cerevisiae PAB106, FMS1 deletion): Normal; 96 Well Screen, AF susceptibility vs wildtype [4, 6]: Resistant (″Resistant″ or ″Sensitive″ indicate at least a 5-fold CFU difference from wildtype at the final time point); 96 Well Screen, AF susceptibility vs wildtype ([4]; S. cerevisiae PAB108, ALD3 deletion): Normal; 96 Well Screen, AF susceptibility vs wildtype ([4]; S. cerevisiae PAB109, GAD1 deletion): Normal; 96 Well Screen, AF susceptibility vs wildtype ([4]; S. cerevisiae PAB110, PGM3 deletion): Normal; 96 Well Screen, AF susceptibility vs wildtype ([4]; S. cerevisiae PAB111, PYK2 deletion): Resistant (″Resistant″ or ″Sensitive″ indicate at least a 5-fold CFU difference from wildtype at the final time point); 96 Well Screen, AF susceptibility vs wildtype [4, 7]: Normal; 96 Well Screen, AF susceptibility vs wildtype [4, 8]: Resistant (″Resistant″ or ″Sensitive″ indicate at least a 5-fold CFU difference from wildtype at the final time point); 96 Well Screen, AF susceptibility vs wildtype [4, 9]: Normal; 96 Well Screen, AF susceptibility vs wildtype ([4]; S. cerevisiae PAB115, ATG29 deletion): Normal; 96 Well Screen, AF susceptibility vs wildtype ([4]; S. cerevisiae PAB116, ISU1 deletion): Normal; 96 Well Screen, AF susceptibility vs wildtype ([4]; S. cerevisiae PAB117, CYC7 deletion): Normal; 96 Well Screen, AF susceptibility vs wildtype ([4]; S. cerevisiae PAB118, ARN1 deletion): Normal; 96 Well Screen, AF susceptibility vs wildtype [4, 10]: Resistant (″Resistant″ or ″Sensitive″ indicate at least a 5-fold CFU difference from wildtype at the final time point); 96 Well Screen, AF susceptibility vs wildtype ([4]; S. cerevisiae PAB120, HSP30 deletion): Resistant (″Resistant″ or ″Sensitive″ indicate at least a 5-fold CFU difference from wildtype at the final time point); 96 Well Screen, AF susceptibility vs wildtype [4, 11]: Resistant (″Resistant″ or ″Sensitive″ indicate at least a 5-fold CFU difference from wildtype at the final time point); 96 Well Screen, AF susceptibility vs wildtype [4, 12]: Resistant (″Resistant″ or ″Sensitive″ indicate at least a 5-fold CFU difference from wildtype at the final time point); 96 Well Screen, AF susceptibility vs wildtype ([4]; S. cerevisiae PAB123, ISU2 deletion): Normal; 96 Well Screen, AF susceptibility vs wildtype [4, 13]: Normal; 96 Well Screen, AF susceptibility vs wildtype ([4]; S. cerevisiae PAB125, MID2 deletion): Normal; 96 Well Screen, AF susceptibility vs wildtype ([4]; S. cerevisiae PAB126, SSK1 deletion): Normal; 96 Well Screen, AF susceptibility vs wildtype ([4]; S. cerevisiae PAB127, HSP42 deletion): Normal; 96 Well Screen, AF susceptibility vs wildtype ([4]; S. cerevisiae PAB128, PIG1 deletion): Normal; 96 Well Screen, AF susceptibility vs wildtype ([4]; S. cerevisiae PAB130, UGA1 deletion): Normal; 96 Well Screen, AF susceptibility vs wildtype ([4]; S. cerevisiae PAB131, MTL1 deletion): Normal; 96 Well Screen, AF susceptibility vs wildtype [4, 14]: Resistant (″Resistant″ or ″Sensitive″ indicate at least a 5-fold CFU difference from wildtype at the final time point); 96 Well Screen, AF susceptibility vs wildtype ([4]; S. cerevisiae PAB133, ZWF1 deletion): Normal; 96 Well Screen, AF susceptibility vs wildtype ([4]; S. cerevisiae PAB134, SUM1 deletion): Normal; 96 Well Screen, AF susceptibility vs wildtype [4, 15]: Normal; 96 Well Screen, AF susceptibility vs wildtype ([4]; S. cerevisiae PAB136, PGM2 deletion): Resistant (″Resistant″ or ″Sensitive″ indicate at least a 5-fold CFU difference from wildtype at the final time point); 96 Well Screen, AF susceptibility vs wildtype ([4]; S. cerevisiae PAB137, HFD1 deletion): Normal; 96 Well Screen, AF susceptibility vs wildtype ([4]; S. cerevisiae PAB138, PUF2 deletion): Normal; 96 Well Screen, AF susceptibility vs wildtype ([4]; S. cerevisiae PAB139, TDH1 deletion): Normal; 96 Well Screen, AF susceptibility vs wildtype ([4]; S. cerevisiae PAB140, GUD1 deletion): Sensitive (″Resistant″ or ″Sensitive″ indicate at least a 5-fold CFU difference from wildtype at the final time point); 96 Well Screen, AF susceptibility vs wildtype ([4]; S. cerevisiae PAB141, ATG15 deletion): Normal; 96 Well Screen, AF susceptibility vs wildtype ([4]; S. cerevisiae PAB142, TDH2 deletion): Normal; 96 Well Screen, AF susceptibility vs wildtype ([4]; S. cerevisiae PAB143, ATP1 deletion): Normal; 96 Well Screen, AF susceptibility vs wildtype ([4]; S. cerevisiae PAB144, UGA2 deletion): Normal; 96 Well Screen, AF susceptibility vs wildtype [4, 16]: Resistant (″Resistant″ or ″Sensitive″ indicate at least a 5-fold CFU difference from wildtype at the final time point); 96 Well Screen, AF susceptibility vs wildtype ([4]; S. cerevisiae PAB146, SOLI deletion): Normal; 96 Well Screen, AF susceptibility vs wildtype ([4]; S. cerevisiae PAB147, PAN6 deletion): Normal; 96 Well Screen, AF susceptibility vs wildtype ([4]; S. cerevisiae PAB148, SOL4 deletion): Normal; 96 Well Screen, AF susceptibility vs wildtype ([4]; S. cerevisiae PAB149, YAK1 deletion): Sensitive (″Resistant″ or ″Sensitive″ indicate at least a 5-fold CFU difference from wildtype at the final time point); 96 Well Screen, AF susceptibility vs wildtype ([4]; S. cerevisiae PAB150, PBS2 deletion): Sensitive (″Resistant″ or ″Sensitive″ indicate at least a 5-fold CFU difference from wildtype at the final time point); 96 Well Screen, AF susceptibility vs wildtype ([4]; S. cerevisiae PAB152, GPD1 deletion): Sensitive (″Resistant″ or ″Sensitive″ indicate at least a 5-fold CFU difference from wildtype at the final time point); 96 Well Screen, AF susceptibility vs wildtype ([4]; S. cerevisiae PAB153, SHO1 deletion): Sensitive (″Resistant″ or ″Sensitive″ indicate at least a 5-fold CFU difference from wildtype at the final time point); 96 Well Screen, AF susceptibility vs wildtype ([4]; S. cerevisiae PAB154, FET3 deletion): Sensitive (″Resistant″ or ″Sensitive″ indicate at least a 5-fold CFU difference from wildtype at the final time point); 96 Well Screen, AF susceptibility vs wildtype ([4]; S. cerevisiae PAB155, FBP1 deletion): Sensitive (″Resistant″ or ″Sensitive″ indicate at least a 5-fold CFU difference from wildtype at the final time point); 96 Well Screen, AF susceptibility vs wildtype ([4]; S. cerevisiae PAB156, COX6 deletion): Sensitive (″Resistant″ or ″Sensitive″ indicate at least a 5-fold CFU difference from wildtype at the final time point)

— patent US20150366890A1, “COMPOSITIONS AND METHODS FOR TREATING FUNGAL INFECTIONS” (TRUSTEES OF BOSTON UNIVERSITY, priority 2013, published 2015)
